# Source: patent publication US20240109873A1, “ANTAGONISTS OF THE MUSCARINIC ACETYLCHOLINE RECEPTOR M4” (Vanderbilt University, priority 2020, published 2024)
# Target: T1, human mAChR M4 (Homo sapiens, UniProt P08173)
# T1 construct: expressed in transfected cells; host or cells: CHO-K1 (ATCC), co-transfected with chimeric G protein Gqi5
# T1 sequence (P08173 1-479): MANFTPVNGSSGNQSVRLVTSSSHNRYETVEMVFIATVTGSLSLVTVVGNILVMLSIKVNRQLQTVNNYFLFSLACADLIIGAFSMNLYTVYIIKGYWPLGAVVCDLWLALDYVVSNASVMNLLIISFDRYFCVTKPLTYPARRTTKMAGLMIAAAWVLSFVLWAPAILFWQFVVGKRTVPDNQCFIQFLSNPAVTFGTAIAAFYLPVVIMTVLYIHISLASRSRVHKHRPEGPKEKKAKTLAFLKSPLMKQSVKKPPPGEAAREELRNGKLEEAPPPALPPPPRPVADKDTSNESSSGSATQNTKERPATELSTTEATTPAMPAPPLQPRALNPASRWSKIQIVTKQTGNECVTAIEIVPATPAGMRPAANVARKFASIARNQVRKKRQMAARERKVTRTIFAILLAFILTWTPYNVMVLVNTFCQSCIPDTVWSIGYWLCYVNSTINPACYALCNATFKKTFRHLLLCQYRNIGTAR
# Test: mAChR M4 cell-based functional assay (calcium flux, antagonism of EC80 acetylcholine response, M4/Gqi5/CHO-K1 cells)
# Conditions: for remaining activity at 30 µM: CHO-K1, % ACh maximum at 30 μM, read-out: Human M4 Emin; for IC50: decrease of the response elicited by an EC80 concentration of acetylcholine, CHO-K1 cells, Gqi5; for Human M4 Emin: % ACh maximum at 30 μM
# Protocol: Human or rat M4 cDNA, along with the chimeric G protein Gqi5, were transfected into Chinese hamster ovary (CHO-K1) cells purchased from the American Type Culture Collection using Lipofectamine2000. M4/Gqi5/CHO cells were grown in Ham's F-12 medium containing 10% heat-inactivated fetal bovine serum (FBS), 20 mM HEPES, 500 μg/mL G418 sulfate, and 200 μg/mL Hygromycin B.
# For high throughput measurement of agonist-evoked increases in intracellular calcium, CHO-K1 cells stably expressing muscarinic receptors were plated in growth medium lacking G418 and hygromycin at 15,000 cells/20 μL/well in Greiner 384-well black-walled, tissue culture (TC)-treated, clear-bottom plates (VWR). Cells were incubated overnight at 37° C. and 5% CO2. The next day, cells were washed using an ELX 405 (BioTek) with assay buffer; the final volume was then aspirated to 20 μL. Next, 20 μL of a 2.3 μM stock of Fluo-4/acetoxymethyl ester (Invitrogen, Carlsbad, CA), prepared as a 2.3 mM stock in DMSO and mixed in a 1:1 ratio with 10% (w/v) Pluronic F-127 and diluted in assay buffer, was added to the wells and the cell plates were incubated for 50 min at 37° C. and 5% CO2. Dye was removed by washing with the ELX 405 and the final volume was aspirated to 20 μL. Compound master plates were formatted in a 10-point concentration-response curve (CRC) format (1:3 dilutions) in 100% DMSO with a starting concentration of 10 or 1 mM using a BRAVO liquid handler (Agilent). Test compound CRCs were then transferred to daughter plates (240 nL) using the Echo acoustic plate reformatter (Labcyte, Sunnyvale, CA) and then diluted into assay buffer (40 μL) to a 2× stock using a Thermo Fisher Combi (Thermo Fisher Scientific, Waltham, MA).
# Calcium flux was measured using the Functional Drug Screening System (FDSS) 6000 or 7000 (Hamamatsu Corporation, Tokyo, Japan) as an increase in the fluorescent static ratio. Compounds were applied to cells (20 μL, 2×) using the automated system of the FDSS at 2 seconds into the protocol and the data were collected at 1 Hz. At 143 s, 10 μL of an EC20 concentration of the muscarinic receptor agonist acetylcholine was added (5×), followed by the addition of 12 μL of an EC80 concentration of acetylcholine at the 268 s time point (5×). Agonist activity was analyzed as a concentration-dependent increase in calcium mobilization upon compound addition. Positive allosteric modulator activity was analyzed as a concentration-dependent increase in the EC20 acetylcholine response. Antagonist activity was analyzed as a concentration-dependent decrease in the EC80 acetylcholine response; for the purposes of the tables herein, an IC50 (inhibitory concentration 50) was calculated as a concentration-dependent decrease of the response elicited by an EC80 concentration of acetylcholine. Concentration-response curves were generated using a four-parameter logistical equation in XLFit curve fitting software (IDBS, Bridgewater, NJ) for Excel (Microsoft, Redmond, WA) or Prism (GraphPad Software, Inc., San Diego, CA) or the Dotmatics software platform (Dotmatics, Bishop's Stortford, UK). […]
# Compounds were synthesized as described above. Activity (IC50 and Emin) was determined in the mAChR M4 cell-based functional assay as described above and the data are shown in Table 2.
remaining activity at 30 µM [%],IC50 [nM],Human M4 Emin [%],Structure (SMILES)
3,3.2,,"[2H]C1([2H])CC(C([2H])([2H])N2C[C@H]3C[C@H](Nc4ccc(-c5cnccc5C(F)(F)F)nn4)C[C@@]3(C)C2)CC([2H])([2H])O1 (racemic) [Compound 27, (3aR,5S,6aS)-3a-methyl-2-((tetrahydro-2H-pyran-4-yl-2,2,6,6-d4)methyl-d2)-N-(6-(4-(trifluoromethyl)pyridin-3-yl)pyridazin-3-yl)octahydrocyclopenta[c]pyrrol-5-amine and (3aS,5R,6aR)-3a-methyl-2-((tetrahydro-2H-pyran-4-yl-2,2,6,6-d4)methyl-d2)-N-(6-(4-(trifluoromethyl)pyridin-3-yl)pyridazin-3-yl)octahydrocyclopenta[c]pyrrol-5-amine]"
4,44,,"[2H]C([2H])(N1C[C@H]2C[C@H](Nc3ccc(-c4cnccc4C(F)(F)F)nn3)C[C@H]2C1)[C@]12CCC[C@H]1OCC2 (racemic) [Compound 29, (3aR,5s,6aS)-2-(((3aR,6aR)-hexahydro-3aH-cyclopenta[b]furan-3a-yl)methyl-d2)-N-(6-(4-(trifluoromethyl)pyridin-3-yl)pyridazin-3-yl)octahydrocyclopenta[c]pyrrol-5-amine and (3aR,5s,6aS)-2-(((3aS,6aS)-hexahydro-3aH-cyclopenta[b]furan-3a-yl)methyl-d2)-N-(6-(4-(trifluoromethyl)pyridin-3-yl)pyridazin-3-yl)octahydrocyclopenta[c]pyrrol-5-amine]"
31,4000,,"[2H]C([2H])(N1C[C@H]2C[C@H](Nc3ccc(-c4cnccc4C(F)(F)F)nn3)C[C@H]2C1)[C@@]12CCCCC[C@H]1OCC2 (racemic) [Compound 30, (3aR,5s,6aS)-2-(((3aS,8aR)-octabydro-3aH-cyclohepta[b]furan-3a-yl)methyl-d2)-N-(6-(4-(trifluoromethyl)pyridin-3-yl)pyridazin-3-yl)octahydrocyclopenta[c]pyrrol-5-amine and (3aR,5s,6aS)-2-(((3aR,8aS)-octahydro-3aH-cyclohepta[b]furan-3a-yl)methyl-d2)-N-(6-(4-(trifluoromethyl)pyridin-3-yl)pyridazin-3-yl)octahydrocyclopenta[c]pyrrol-5-amine]"
2,1.9,,"[2H]C([2H])(C1CCOCC1)N1C[C@@H]2C[C@@H](Nc3ccc(-c4cccnc4C(F)(F)F)nn3)C[C@]2(C)C1 (racemic) [Compound 56, (3aR,5S,6aS)-3a-methyl-2-((tetrahydro-2H-pyran-4-yl)methyl-d2)-N-(6-(2-(trifluoromethyl)pyridin-3-yl)pyridazin-3-yl)octahydrocyclopenta[c]pyrrol-5-amine and (3aS,5R,6aR)-3a-methyl-2-((tetrahydro-2H-pyran-4-yl)methyl-d2)-N-(6-(2-(trifluoromethyl)pyridin-3-yl)pyridazin-3-yl)octahydrocyclopenta[c]pyrrol-5-amine]"
3,1.5,,"[2H]C1([2H])CC(C([2H])([2H])N2C[C@H]3C[C@H](Nc4ccc(-c5cccnc5C(F)(F)F)nn4)C[C@@]3(C)C2)CC([2H])([2H])O1 (racemic) [Compound 57, (3aR,5S,6aS)-3a-methyl-2-((tetrahydro-2H-pyran-4-yl-2,2,6,6-d4)methyl-d2)-N-(6-(2-(trifluoromethyl)pyridin-3-yl)pyridazin-3-yl)octahydrocyclopenta[c]pyrrol-5-amine and (3aS,5R,6aR)-3a-methyl-2-((tetrahydro-2H-pyran-4-yl-2,2,6,6-d4)methyl-d2)-N-(6-(2-(trifluoromethyl)pyridin-3-yl)pyridazin-3-yl)octahydrocyclopenta[c]pyrrol-5-amine]"
,9.4,3,"[2H]C([2H])(C1CCOC(C)(C)C1)N1C[C@H]2C[C@H](Nc3ccc(-c4cnccc4C(F)(F)F)nn3)C[C@H]2C1 (single isomer, unassigned) [Compound 58]"
,1,3,"[2H]C([2H])(C1CCOC(C)(C)C1)N1C[C@H]2C[C@H](Nc3ccc(-c4cnccc4C(F)(F)F)nn3)C[C@H]2C1 (single isomer, unassigned) [Compound 59]"
4,0.28,,"FC(F)(F)c1ccncc1-c1ccc(N[C@H]2C[C@@H]3CN(CC4CCOCC4)C[C@@H]3C2)nn1 [Compound 1, (3aR,5s,6aS)-2-((tetrahydro-2H-pyran-4-yl)methyl)-N-(6-(4-(trifluoromethyl)pyridin-3-yl)pyridazin-3-yl)octahydrocyclopenta[c]pyrrol-5-amine]"
3,0.41,,"[2H]C([2H])(C1CCOCC1)N1C[C@H]2C[C@H](Nc3ccc(-c4cnccc4C(F)(F)F)nn3)C[C@H]2C1 [Compound 2, (3aR,5s,6aS)-2-((tetrahydro-2H-pyran-4-yl)methyl-d2)-N-(6-(4-(trifluoromethyl)pyridin-3-yl)pyridazin-3-yl)octahydrocyclopenta[c]pyrrol-5-amine]"
2,4.6,,"[2H]C([2H])(C1CCOCC1(C)C)N1C[C@H]2C[C@H](Nc3ccc(-c4cnccc4C(F)(F)F)nn3)C[C@H]2C1 (stereo partly drawn) [Compound 3, (3aR,5s,6aS)-2-((3,3-dimethyltetrahydro-2H-pyran-4-yl)methyl-d2)-N-(6-(4-(trifluoromethyl)pyridin-3-yl)pyridazin-3-yl)octahydrocyclopenta[c]pyrrol-5-amine]"
2,15,,"[2H]C([2H])(N1C[C@H]2C[C@H](Nc3ccc(-c4cnccc4C(F)(F)F)nn3)C[C@H]2C1)C1(C)CCOCC1 [Compound 4, (3aR,5s,6aS)-2-((4-methyltetrahydro-2H-pyran-4-yl)methyl-d2)-N-(6-(4-(trifluoromethyl)pyridin-3-yl)pyridazin-3-yl)octahydrocyclopenta[c]pyrrol-5-amine]"
2,0.91,,"[2H]C([2H])([C@H]1COCCO1)N1C[C@H]2C[C@H](Nc3ccc(-c4cnccc4C(F)(F)F)nn3)C[C@H]2C1 [Compound 5, (3aR,5s,6aS)-2-(((S)-1,4-dioxan-2-yl)methyl-d2)-N-(6-(4-(trifluoromethyl)pyridin-3-yl)pyridazin-3-yl)octahydrocyclopenta[c]pyrrol-5-amine]"
3,33,,"[2H]C([2H])([C@@H]1COCCO1)N1C[C@H]2C[C@H](Nc3ccc(-c4cnccc4C(F)(F)F)nn3)C[C@H]2C1 [Compound 6, (3aR,5s,6aS)-2-(((R)-1,4-dioxan-2-yl)methyl-d2)-N-(6-(4-(trifluoromethyl)pyridin-3-yl)pyridazin-3-yl)octahydrocyclopenta[c]pyrrol-5-amine]"
